Laboratory results published in ChEMBL document CHEMBL1133038, “New quinolinic derivatives as centrally active antioxidants” (Bioorg Med Chem Lett, 2000).

Columns and labels:
HT-22 [1] = assay: The concentration producing 50% protection against L-HCA-mediated neurotoxicity in HT-22 hippocampal cell line.; type: functional
HT-22 [2] = assay: Safety ratio of MTC to that of PC50; type: functional
HT-22 [3] = assay: The minimum tolerated concentration by MTT reduction assay in HT-22 hippocampal cell line.; type: functional
HT-22 [4] = assay: The concentration producing 50% toxicity in HT-22 hippocampal cell line.; type: functional; conditions: Mus musculus, read-out: TC50 (the source's name)
Mus musculus [5] = assay: Percent survival of NMRI mice after 5 hours of intraperitoneal administration of 150 mg/kg of compound.; type: functional; conditions: ip
Mus musculus [6] = assay: Body temperature of NMRI mice after 30 minutes of intraperitoneal administration of 150 mg/kg compound.; type: functional
Mus musculus [7] = assay: The compound was tested for % survival of NMRI mice after 5 hours of intraperitoneal administration of 150 mg/kg of dose; 30/60; type: functional; conditions: ip
[8] = Safety ratio of MTC to that of PC50; Not relevant; type: toxicity

Compound	PC50 (HT-22 [1]; Mus musculus)	Ratio (HT-22 [2]; Mus musculus)	MTC (HT-22 [3]; Mus musculus)	PC50 (HT-22 [1])	Ratio (HT-22 [2])	MTC (HT-22 [3])	CC50 (HT-22 [4])	survival at 150 mg/kg (Mus musculus [5])	change in body temperature (Mus musculus [6])	survival at 150 mg/kg (Mus musculus [7])	Ratio [8]
VITAMIN E	0.8 µM	> 250	> 200 µM								
CCOc1ccc2c(c1)C=CC1(CCNCC1)N2				0.51 µM	20	10 µM	139 µM				
COc1ccc2c(c1)C=CC1(CCCCC1)N2				0.49 µM	10	5 µM	46.9 µM	100%	-1 °C		
CCOc1c(C(C)(C)C)cc2c(c1C(C)(C)C)C=CC(C)(C)N2				0.1 µM	250	25 µM	36.5 µM	60%	-1 °C		
O=c1c2ccccc2[se]n1-c1ccccc1 [EBSELEN]				1 µM	10	10 µM	20 µM	20%	-1.85 °C		
CCOc1c(C)c(C)c2c(c1C)C=CC(C)(C)N2				0.46 µM	109	50 µM	123 µM	70%	-2.5 °C		
CCOc1ccc2c(c1)C=CC1(CCN(CC3CC3)CC1)N2				0.77 µM	260	200 µM	200 µM				
CC(C)(C)Oc1ccc2c(c1)C=CC1(CCCCC1)N2				0.13 µM	77	10 µM	13.2 µM	30%	-0.2 °C		
CCOc1c(C(C)C)cc2c(c1C(C)C)CCC(C)(C)N2				0.06 µM	167	10 µM	18.2 µM	40%	-0.5 °C		
CCOc1ccc2c(c1)C(C)CC(C)(C)N2 (stereo not drawn)				0.86 µM	58	50 µM	137 µM				
CCOc1c(C)cc2c(c1C)C=CC1(CCCCC1)N2				0.03 µM	333	10 µM	19.3 µM	70%	-0.3 °C		
CCOc1cccc2c1NC1(C=C2)CCCCC1				0.37 µM	27	10 µM	17.9 µM	60%	-1 °C		
CC(C)(C)/[N+]([O-])=C/c1ccccc1				>200 µM		>200 µM			-2.1 °C	50%	Not relevant
CCOc1c(C)cc2c(c1C)C=CC(C)(C)N2				0.35 µM	143	50 µM	182 µM	100%	-0.9 °C		
CCOc1ccc2c(c1)C=CC(C)(C)N2				0.19 µM	132	25 µM	56 µM	100%	-1.7 °C		
C1=CC2(CCCCC2)Nc2ccc(Oc3ccccc3)cc21				4.75 µM	2.1	10 µM	11.2 µM				
CCOc1ccc2c(c1)C=CC1(CCCCC1)N2				0.18 µM	28	5 µM	17.1 µM	80%	-0.2 °C		
CCOc1ccc2c(c1)CCC1(CCCCC1)N2				0.16 µM	156	25 µM	74.5 µM	60%	-0.7 °C		
CC1=NN(c2ccccc2)C(=O)C1 [EDARAVONE]				70.4 µM	2.8	200 µM	> 200 µM	80%	-2.4 °C		
CC(C)(C)C(=O)Oc1ccc2c(c1)C=CC1(CCCCC1)N2				0.73 µM	1.4	1 µM	1.61 µM	30%	-2.8 °C		
CCOc1c(C)cc2c(c1C)CCC(C)(C)N2				0.16 µM	625	100 µM	186 µM	80%	-0.5 °C		
CCOc1c(C)c(C)c2c(c1C)CCC(C)(C)N2				0.2 µM	250	50 µM	128 µM	100%	-0.2 °C		
CCOc1cccc2c1NC(C)(C)C=C2				1 µM	100	100 µM	200 µM				
CCOc1c(C)c(C)c2c(c1C)C=CC1(CCCCC1)N2				0.17 µM	59	10 µM	17.8 µM	50%	-0.8 °C		
CCOc1c(C)cc2c(c1C)CCC1(CCCCC1)N2				0.01 µM	1000	10 µM	17.6 µM	80%	-2.2 °C		
CCOc1c(C(C)C)cc2c(c1C(C)C)C=CC(C)(C)N2				0.07 µM	143	10 µM	200 µM	50%	-0.05 °C		
CCOc1c(C(C)C)cc2c(c1C(C)C)C=CC1(CCCCC1)N2				0.12 µM	83	10 µM	16.9 µM				
CCOc1c(C)c(C)c2c(c1C)CCC1(CCCCC1)N2				0.15 µM	67	10 µM	17.2 µM	60%	-0.8 °C		
CCOc1ccc2c(c1)C(C)=CC(C)(C)N2 [E324]				0.41 µM	122	50 µM	103 µM	80%	-1.85 °C		
